Experiments:
Type in all cases: biochemical
Caspase-8 = Caspase-8 (Homo sapiens, UniProt Q14790); assay: Kinetic compound screening, progress curve method, caspase-8; conditions: for Ki(app) Caspase-8: Table III, Ki(app) = Kass or Kobs/I, 10 nM active caspase-8; for Caspase-8 Ki (app): Table IV, NI = no inhibition at concentrations tested
How it was run: (§1)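 Progress-curve method under pseudo-first-order kinetics, giving Ki(app) (kobs/I, M^−1s^−1), in caspase reaction buffer. Active enzyme at 5 nM (caspase-3, -7), 10 nM (caspase-8) or 50 nM (caspase-9), preactivated at 37 °C for 5, 10 or 40 min respectively. Some caspase-9 compounds also run with 1 M sodium citrate replacing sucrose.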

Caspase-7 = biological target: T1, Caspase-7 (Homo sapiens, UniProt P55210); assay: Kinetic compound screening, progress curve method, caspase-7; conditions: for Ki(app) Caspase-7: Table III, Ki(app) = Kass or Kobs/I, 5 nM active caspase-7; for Caspase-7 Ki (app): Table IV
T1 sequence (P55210 1-303): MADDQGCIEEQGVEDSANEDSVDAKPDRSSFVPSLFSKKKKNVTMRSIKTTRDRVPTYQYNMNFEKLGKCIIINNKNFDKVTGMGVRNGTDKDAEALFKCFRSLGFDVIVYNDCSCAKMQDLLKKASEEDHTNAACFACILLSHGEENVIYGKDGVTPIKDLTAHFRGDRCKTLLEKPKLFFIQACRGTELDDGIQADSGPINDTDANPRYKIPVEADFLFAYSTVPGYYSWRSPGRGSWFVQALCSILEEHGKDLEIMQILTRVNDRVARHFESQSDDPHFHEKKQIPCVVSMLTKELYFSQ
How it was run: as §1

Caspase-3 = biological target: T2, Caspase-3 (Homo sapiens, UniProt P42574); assay: Kinetic compound screening, progress curve method, caspase-3; conditions: for Ki(app) Caspase-3: Table III, Ki(app) = Kass or Kobs/I, 5 nM active caspase-3; for Caspase-3 Ki(app): Table IV
T2 sequence (P42574 29-175 limits assumed): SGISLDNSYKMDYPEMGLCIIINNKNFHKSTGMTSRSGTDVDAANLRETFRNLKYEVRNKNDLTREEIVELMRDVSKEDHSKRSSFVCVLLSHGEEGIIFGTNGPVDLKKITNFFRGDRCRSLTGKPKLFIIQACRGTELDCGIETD
T2 sequence (P42574 176-277 limits assumed): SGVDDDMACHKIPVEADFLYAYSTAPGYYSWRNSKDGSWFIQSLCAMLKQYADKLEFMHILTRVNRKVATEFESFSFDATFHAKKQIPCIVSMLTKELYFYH
How it was run: as §1

Caspase-9 = biological target: T3, Caspase-9 (Homo sapiens, UniProt P55211); assay: Kinetic compound screening, progress curve method, caspase-9; conditions: NI = no inhibition at concentrations tested; for Ki(app) Caspase-9: Table III, Ki(app) = Kass or Kobs/I, 50 nM active caspase-9; for Caspase-9 Ki (app): Table IV
T3 sequence (P55211 1-416): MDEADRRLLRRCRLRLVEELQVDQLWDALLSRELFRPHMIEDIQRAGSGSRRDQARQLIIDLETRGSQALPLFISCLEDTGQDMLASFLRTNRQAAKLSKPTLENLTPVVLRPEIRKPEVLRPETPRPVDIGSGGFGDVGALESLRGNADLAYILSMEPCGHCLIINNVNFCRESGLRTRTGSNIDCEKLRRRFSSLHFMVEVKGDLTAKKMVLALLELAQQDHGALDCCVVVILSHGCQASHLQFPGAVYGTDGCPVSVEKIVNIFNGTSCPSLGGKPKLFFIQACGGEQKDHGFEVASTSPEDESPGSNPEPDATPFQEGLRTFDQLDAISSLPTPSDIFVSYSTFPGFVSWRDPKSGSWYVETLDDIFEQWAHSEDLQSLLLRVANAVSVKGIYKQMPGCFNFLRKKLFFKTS
How it was run: as §1

Sequence of Caspase-8 (Q14790 217-479): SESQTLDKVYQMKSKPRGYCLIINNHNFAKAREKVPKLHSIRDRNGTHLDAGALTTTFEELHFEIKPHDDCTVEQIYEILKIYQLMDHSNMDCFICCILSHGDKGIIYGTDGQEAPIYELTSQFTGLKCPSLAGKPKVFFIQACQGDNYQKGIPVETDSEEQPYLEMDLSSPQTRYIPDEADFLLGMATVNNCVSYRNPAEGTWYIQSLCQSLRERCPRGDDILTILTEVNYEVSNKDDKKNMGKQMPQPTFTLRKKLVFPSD

Compound	Ki(app) Caspase-8 (Caspase-8)	Caspase-8 Ki (app) (Caspase-8)	Ki(app) Caspase-7 (Caspase-7)	Caspase-7 Ki (app) (Caspase-7)	Ki(app) Caspase-3 (Caspase-3)	Caspase-3 Ki(app) (Caspase-3)	inhibition of caspase-8, in words (Caspase-8)	Ki(app) Caspase-9 (Caspase-9)	Caspase-9 Ki (app) (Caspase-9)
Cc1cccc(C)c1C(=O)OCC(=O)[C@H](CC(=O)O)NC(=O)[C@@H](NC(=O)[C@H](Cc1ccncc1)NC(=O)[C@H](CC(=O)O)NC(=O)Cc1ccc(O)c([N+](=O)[O-])c1)C(C)C [AB06, Np-D-3-V-D-DMBA]	32,909 M^−1s^−1	32,909 M-1s-1	968,070 M^−1s^−1	968,070 M-1s-1	7,456,511 M^−1s^−1	7,456,511 M-1s-1	–	–	–
Cc1cccc(C)c1C(=O)OCC(=O)[C@H](CC(=O)O)NC(=O)[C@@H](NC(=O)[C@H](CCC(=O)O)NC(=O)[C@H](CC(=O)O)NC(=O)Cc1ccc(O)c([N+](=O)[O-])c1)C(C)C [AB09, Np-D-E- V-D-DMBA]	1,077,839 M^−1s^−1	1,077,839 M-1s-1	1,529,040 M^−1s^−1	1,529,040 M-1s-1	10,922,261 M^−1s^−1	10,922,261 M-1s-1	strong activity towards caspase-8	<5,000 M^−1s^−1	<5,000 M-1s-1
Bio-EVD-AOMK [KMB01, reference compound]	164,052 M^−1s^−1	164,052 M-1s-1	288,213 M^−1s^−1	288,213 M-1s-1	577,913 M^−1s^−1	577,913 M-1s-1	–	175,210 M^−1s^−1	210 M⁻¹ s⁻¹

From patent US20100068150A1, “Selective Caspase Inhibitors” (The Board of Trustees of the Leland Stanford Junior …, priority 2006, published 2010)
